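Five concentrations, 48 hours, 96-well plates. TGI: total growth inhibition.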
What was measured:
Assay in all cases: DTP human tumour cell line panel, 48 h
OVCAR-3 ovarian = test system: OVCAR-3 ovarian
MDA-MB-231 breast = test system: MDA-MB-231 breast
SK-OV-3 ovarian = test system: SK-OV-3 ovarian
NCI/ADR-RES ovarian = test system: NCI/ADR-RES ovarian
NCI-H522 lung = test system: NCI-H522 lung
DMS 273 small cell lung = test system: DMS 273 small cell lung
HS 578T breast = test system: HS 578T breast
DU-145 prostate = test system: DU-145 prostate
HCT-15 colon = test system: HCT-15 colon
UACC-62 melanoma = test system: UACC-62 melanoma
OVCAR-4 ovarian = test system: OVCAR-4 ovarian
SW-620 colon = test system: SW-620 colon
SN12C renal = test system: SN12C renal
CAKI-1 renal = test system: CAKI-1 renal
MOLT-4 leukemia = test system: MOLT-4 leukemia
SNB-19 CNS = test system: SNB-19 CNS
OVCAR-8 ovarian = test system: OVCAR-8 ovarian
SF-295 CNS = test system: SF-295 CNS
SNB-78 CNS = test system: SNB-78 CNS
U251 CNS = test system: U251 CNS
DLD-1 colon = test system: DLD-1 colon
HT29 colon = test system: HT29 colon
CCRF-CEM leukemia = test system: CCRF-CEM leukemia
HCC-2998 colon = test system: HCC-2998 colon
IGROV1 ovarian = test system: IGROV1 ovarian
UACC-257 melanoma = test system: UACC-257 melanoma
SK-MEL-2 melanoma = test system: SK-MEL-2 melanoma
OVCAR-5 ovarian = test system: OVCAR-5 ovarian
EKVX NSCLC = test system: EKVX NSCLC
SF-539 CNS = test system: SF-539 CNS
DMS 114 small cell lung = test system: DMS 114 small cell lung
M14 melanoma = test system: M14 melanoma
786-0 renal = test system: 786-0 renal
ACHN renal = test system: ACHN renal
RXF-631 renal = test system: RXF-631 renal
MDA-MB-435 = test system: MDA-MB-435
NCI-H460 lung = test system: NCI-H460 lung
T-47D breast = test system: T-47D breast
UO-31 renal = test system: UO-31 renal
SR leukemia = test system: SR leukemia
COLO 205 colon = test system: COLO 205 colon
LXFL 529 NSCLC = test system: LXFL 529 NSCLC
NCI-H23 lung = test system: NCI-H23 lung
KM20L2 colon = test system: KM20L2 colon
MDA-N = test system: MDA-N
HOP-62 NSCLC = test system: HOP-62 NSCLC
MCF7 breast = test system: MCF7 breast
MALME-3M melanoma = test system: MALME-3M melanoma
SK-MEL-28 melanoma = test system: SK-MEL-28 melanoma
HOP-92 NSCLC = test system: HOP-92 NSCLC
SNB-75 CNS = test system: SNB-75 CNS
M19-MEL melanoma = test system: M19-MEL melanoma
HCT-116 colon = test system: HCT-116 colon
A549 NSCLC = test system: A549 NSCLC
RXF 393 renal = test system: RXF 393 renal
SF-268 CNS = test system: SF-268 CNS
KM12 colon = test system: KM12 colon
PC-3 prostate = test system: PC-3 prostate
BT-549 breast = test system: BT-549 breast
K-562 leukemia = test system: K-562 leukemia
NCI-H226 lung = test system: NCI-H226 lung
RPMI-8226 leukemia = test system: RPMI-8226 leukemia
TK-10 renal = test system: TK-10 renal
SK-MEL-5 melanoma = test system: SK-MEL-5 melanoma
HL-60(TB) leukemia = test system: HL-60(TB) leukemia
A498 renal = test system: A498 renal
LOX IMVI melanoma = test system: LOX IMVI melanoma
HOP-18 NSCLC = test system: HOP-18 NSCLC
XF 498 CNS = test system: XF 498 CNS

## CC(C)(C)C1CCC2(CC1)CCN(CCCN1CCOCC1)CC2
OVCAR-3 ovarian
  TGI: > 100 µM
MDA-MB-231 breast
  TGI: > 100 µM
SK-OV-3 ovarian
  TGI: > 100 µM
NCI/ADR-RES ovarian
  TGI: > 100 µM
NCI-H522 lung
  TGI: > 71.3 µM
DMS 273 small cell lung
  TGI: 38.3 µM
HS 578T breast
  TGI: > 100 µM
DU-145 prostate
  TGI: > 100 µM
HCT-15 colon
  TGI: > 57.9 µM
UACC-62 melanoma
  TGI: 25 µM
OVCAR-4 ovarian
  TGI: > 100 µM
SW-620 colon
  TGI: > 59.3 µM
SN12C renal
  TGI: > 100 µM
CAKI-1 renal
  TGI: > 88 µM
MOLT-4 leukemia
  TGI: > 65.4 µM
SNB-19 CNS
  TGI: > 100 µM
OVCAR-8 ovarian
  TGI: > 100 µM
SF-295 CNS
  TGI: > 61.7 µM
SNB-78 CNS
  TGI: 91.9 µM
U251 CNS
  TGI: > 53.3 µM
DLD-1 colon
  TGI: > 100 µM
HT29 colon
  TGI: > 34.2 µM
CCRF-CEM leukemia
  TGI: > 100 µM
HCC-2998 colon
  TGI: 35.4 µM
IGROV1 ovarian
  TGI: > 100 µM
UACC-257 melanoma
  TGI: 31.1 µM
SK-MEL-2 melanoma
  TGI: 53.2 µM
OVCAR-5 ovarian
  TGI: > 100 µM
EKVX NSCLC
  TGI: > 100 µM
SF-539 CNS
  TGI: > 51.1 µM
DMS 114 small cell lung
  TGI: 33.9 µM
M14 melanoma
  TGI: 27.8 µM
786-0 renal
  TGI: 51 µM
ACHN renal
  TGI: > 100 µM
RXF-631 renal
  TGI: 31 µM
MDA-MB-435
  TGI: > 100 µM
NCI-H460 lung
  TGI: > 100 µM
T-47D breast
  TGI: > 100 µM
UO-31 renal
  TGI: > 100 µM
SR leukemia
  TGI: > 100 µM
COLO 205 colon
  TGI: 32.7 µM
LXFL 529 NSCLC
  TGI: 21.5 µM
NCI-H23 lung
  TGI: > 100 µM
KM20L2 colon
  TGI: 5.24 µM
MDA-N
  TGI: 89.9 µM
HOP-62 NSCLC
  TGI: > 57.8 µM
MCF7 breast
  TGI: > 100 µM
MALME-3M melanoma
  TGI: 39.4 µM
SK-MEL-28 melanoma
  TGI: 33.2 µM
HOP-92 NSCLC
  TGI: > 63.9 µM
SNB-75 CNS
  TGI: > 52.4 µM
M19-MEL melanoma
  TGI: 25.9 µM
HCT-116 colon
  TGI: > 59.7 µM
A549 NSCLC
  TGI: > 88.8 µM
RXF 393 renal
  TGI: > 82.3 µM
SF-268 CNS
  TGI: > 100 µM
KM12 colon
  TGI: > 100 µM
PC-3 prostate
  TGI: > 100 µM
BT-549 breast
  TGI: > 100 µM
K-562 leukemia
  TGI: 30.5 µM
NCI-H226 lung
  TGI: > 100 µM
RPMI-8226 leukemia
  TGI: 63.8 µM
TK-10 renal
  TGI: > 100 µM
SK-MEL-5 melanoma
  TGI: 21.4 µM
HL-60(TB) leukemia
  TGI: 41.8 µM
A498 renal
  TGI: > 57.4 µM
LOX IMVI melanoma
  TGI: > 52.3 µM

## COc1cccc(/C(C=O)=C(\Cl)c2ccc(OC)c(OC)c2)c1
OVCAR-3 ovarian
  TGI: 30.2 µM
SK-OV-3 ovarian
  TGI: 58.8 µM
NCI-H522 lung
  TGI: 22.1 µM
DMS 273 small cell lung
  TGI: 27.3 µM
HOP-18 NSCLC
  TGI: 27.8 µM
HCT-15 colon
  TGI: 25.6 µM
UACC-62 melanoma
  TGI: 17.4 µM
OVCAR-4 ovarian
  TGI: 39.1 µM
SW-620 colon
  TGI: 29.6 µM
SN12C renal
  TGI: 27.8 µM
CAKI-1 renal
  TGI: 45.1 µM
MOLT-4 leukemia
  TGI: 42.5 µM
SNB-19 CNS
  TGI: 16.3 µM
OVCAR-8 ovarian
  TGI: 30.3 µM
SF-295 CNS
  TGI: 28.9 µM
SNB-78 CNS
  TGI: 37.7 µM
U251 CNS
  TGI: 27.4 µM
DLD-1 colon
  TGI: 25.5 µM
HT29 colon
  TGI: 27.5 µM
CCRF-CEM leukemia
  TGI: 33.5 µM
HCC-2998 colon
  TGI: 29.8 µM
IGROV1 ovarian
  TGI: 41.8 µM
UACC-257 melanoma
  TGI: 29.3 µM
SK-MEL-2 melanoma
  TGI: 42.8 µM
OVCAR-5 ovarian
  TGI: 36.9 µM
EKVX NSCLC
  TGI: 33.9 µM
SF-539 CNS
  TGI: 30.4 µM
DMS 114 small cell lung
  TGI: 30.5 µM
M14 melanoma
  TGI: 31.6 µM
786-0 renal
  TGI: 30.7 µM
ACHN renal
  TGI: 26.4 µM
NCI-H460 lung
  TGI: 28 µM
UO-31 renal
  TGI: 28.2 µM
SR leukemia
  TGI: 82.1 µM
COLO 205 colon
  TGI: 27.5 µM
XF 498 CNS
  TGI: 31.1 µM
LXFL 529 NSCLC
  TGI: 24.4 µM
NCI-H23 lung
  TGI: 24.9 µM
KM20L2 colon
  TGI: 44.1 µM
HOP-62 NSCLC
  TGI: 25.1 µM
MALME-3M melanoma
  TGI: 29 µM
SK-MEL-28 melanoma
  TGI: 29 µM
HOP-92 NSCLC
  TGI: 38.7 µM
SNB-75 CNS
  TGI: 21.3 µM
M19-MEL melanoma
  TGI: 23.4 µM
HCT-116 colon
  TGI: 22.5 µM
A549 NSCLC
  TGI: 46.8 µM
RXF 393 renal
  TGI: 25.1 µM
SF-268 CNS
  TGI: 25.3 µM
KM12 colon
  TGI: 29.1 µM
K-562 leukemia
  TGI: 46.2 µM
NCI-H226 lung
  TGI: 28.1 µM
RPMI-8226 leukemia
  TGI: 48.8 µM
TK-10 renal
  TGI: 73 µM
SK-MEL-5 melanoma
  TGI: 25.3 µM
HL-60(TB) leukemia
  TGI: 20.7 µM
LOX IMVI melanoma
  TGI: 28.7 µM

## CN(C)CCCSc1c2ccccc2nc2cc(NCC(=O)Nc3ccccc3-c3ccccc3NC(=O)CNc3ccc4c(SCCCN(C)C)c5ccccc5nc4c3)ccc12
OVCAR-3 ovarian
  TGI: > 100 µM
SK-OV-3 ovarian
  TGI: > 100 µM
NCI-H522 lung
  TGI: > 100 µM
DMS 273 small cell lung
  TGI: > 100 µM
HOP-18 NSCLC
  TGI: > 100 µM
HCT-15 colon
  TGI: > 100 µM
UACC-62 melanoma
  TGI: > 100 µM
OVCAR-4 ovarian
  TGI: > 100 µM
SW-620 colon
  TGI: > 100 µM
SN12C renal
  TGI: > 100 µM
CAKI-1 renal
  TGI: > 100 µM
MOLT-4 leukemia
  TGI: > 100 µM
SNB-19 CNS
  TGI: > 100 µM
OVCAR-8 ovarian
  TGI: > 100 µM
SF-295 CNS
  TGI: > 100 µM
SNB-78 CNS
  TGI: > 100 µM
U251 CNS
  TGI: > 100 µM
DLD-1 colon
  TGI: > 100 µM
HT29 colon
  TGI: > 100 µM
CCRF-CEM leukemia
  TGI: 92.7 µM
HCC-2998 colon
  TGI: > 100 µM
IGROV1 ovarian
  TGI: > 100 µM
UACC-257 melanoma
  TGI: > 100 µM
SK-MEL-2 melanoma
  TGI: > 100 µM
OVCAR-5 ovarian
  TGI: > 100 µM
EKVX NSCLC
  TGI: > 100 µM
SF-539 CNS
  TGI: > 100 µM
DMS 114 small cell lung
  TGI: > 100 µM
M14 melanoma
  TGI: > 100 µM
786-0 renal
  TGI: > 100 µM
ACHN renal
  TGI: > 100 µM
NCI-H460 lung
  TGI: > 100 µM
UO-31 renal
  TGI: > 100 µM
SR leukemia
  TGI: > 100 µM
COLO 205 colon
  TGI: > 100 µM
XF 498 CNS
  TGI: > 100 µM
LXFL 529 NSCLC
  TGI: > 100 µM
NCI-H23 lung
  TGI: > 100 µM
KM20L2 colon
  TGI: > 100 µM
HOP-62 NSCLC
  TGI: > 100 µM
MALME-3M melanoma
  TGI: > 100 µM
SK-MEL-28 melanoma
  TGI: > 100 µM
HOP-92 NSCLC
  TGI: > 100 µM
SNB-75 CNS
  TGI: > 100 µM
M19-MEL melanoma
  TGI: > 100 µM
HCT-116 colon
  TGI: > 100 µM
A549 NSCLC
  TGI: > 100 µM
RXF 393 renal
  TGI: > 100 µM
SF-268 CNS
  TGI: > 100 µM
KM12 colon
  TGI: > 100 µM
K-562 leukemia
  TGI: > 100 µM
NCI-H226 lung
  TGI: > 100 µM
RPMI-8226 leukemia
  TGI: > 100 µM
TK-10 renal
  TGI: > 100 µM
SK-MEL-5 melanoma
  TGI: > 100 µM
HL-60(TB) leukemia
  TGI: 50.3 µM
A498 renal
  TGI: > 100 µM
LOX IMVI melanoma
  TGI: > 100 µM
